Experimental data: US7037891B2, “Methods of modulating G-protein-coupled receptor kinase-associated signal transduction” (Children's Medical Center Corporation, priority 1997, dated 2006)

Key:
[1] = Type II diabetes in sand rats: blood-glucose after i.p. injection; type: in vivo, sand rats (psamomys obesus); details: diabetic sand-rats
Excerpt: Sand-rats (psamomys) which are genetically prone to develop Type II diabetes were used in this study. The genetically selected sand-rats, 3 to 6 months old, were fed an energy-rich diet (Weizmann HE) for about 3 to 10 days until they became diabetic, as judged by their elevated blood-glucose level (see R. Kalman et al., “The Efficiency of Sand Rat Metabolism is Responsible for Development of Obesity and Diabetes”, J. of Basic & Clinical Physiology & Pharmacology (1993), vol. 4, no. 1–2, pp 57–68, the pertinent portions of which are incorporated herein by reference).
The diabetic sand-rats were injected i.p. once a week with a compound comprising GRK-derived peptide K024H107 (SEQ ID NO:10) at a dose of 10 mg/kg. The peptide was prepared by diluting a 10 mM solution of the peptide in 100% DMSO with phosphate buffered saline (PBS) containing 0.1% bovine serum albumin (BSA) to a concentration of 400 μM. […] of the 10 mM peptide in DMSO solution was mixed with 160 μl of 1.6M NH4HCO3 and heated for 40 minutes at 100° C. The resultant solution was then diluted to 400 μM in 2 M Hepes buffer (pH 7.0). This peptide stock solution was labeled “tbi”. The vehicle of the solution for injection included 8% DMSO, 0.67M ammonium bicarbonate, and 2M Hepes. Control animals received an i.p. injection of the vehicle only.

C6 glioblastoma cells = test: Intracellular cyclic AMP levels (EIA) after isoproterenol activation; type: cell-based
Excerpt: It is well known that after activation of the various GPCRs there is an activation of the adenolate cyclase by G-proteins. This raises the cyclic-AMP levels in the cell, and these levels are then decreased due to the desensitization of the receptors by GRK. Thus it is expected that inhibition of GAST will eliminate this decrease in the cyclic AMP levels, and will cause a constitutive increase in cAMP levels.
C6 glioblastoma cells, which are known to express the β-adrenagic receptor (the substrate of GRK). have been used.
To the cells the following compounds were added:
The amount of the activity was measured by measuring the increase of intracellular cyclic AMP levels, which were measured using the commercially available kit of Biotrack Cellular Communication Assay cyclic-AMP enzyme—immunoassay (EIA) system.

[2] = Reduction of weight and appetite of normal mice; type: in vivo; details: for change in body weight as compared to control / food consumption as compared to control: NDP-αMSH 0.9 μg/kg BW; for change in body weight as compared to control: KO24H107 21 mg/kg, or both (FIG. 7A); for food consumption as compared to control: KO24H107 21 mg/kg, or both (FIG. 7B)
Protocol: 18 Sabra male mice, 8 weeks old, were used and were divided into four groups as followed:
The animals were weighed before trial and periodically during the trial.
At the same time, food was weighted before it was introduced into cages and at the end of each tested period. From this point on, the follow-up included both weighing of the mice and of the food for the short period, every couple of hours, until night, and later on for the long period, each 24 hour cycle.
The results of FIG. 7A are shown as the percentage of change in body weight as compared to the initial weight for each mice, and then averaged for each group. The calculation of food consumption (FIG. 7B) was calculated in each group relative to the total weight of all animals (4 or 5 animals) and averaged separately for each group.
The above experiment was conducted again with another compound comprising a GRK-derived peptide KO24H112 (SEQ ID NO:5) 16 animals were used as follows: […]

Substance | animals that became normoglycemic already after the first injection (responders) ([1]; i.p. 10 mg/kg once a week) [animals] | rest of the treated animals (nonresponders): normoglycemia ([1]; i.p. 10 mg/kg once a week) | blood-glucose ([1]; i.p. 10 mg/kg, after a single injection, vs vehicle controls (FIG. 3, 4)) | cyclic AMP levels (C6 glioblastoma cells; 10 μM compound added first, 1 μM isoproterenol an hour later (FIG. 6)) | cyclic AMP level (C6 glioblastoma cells; order reversed: 1 μM isoproterenol first, 10 μM compound one hour later (FIG. 6)) | change in body weight as compared to control ([2]; normal Sabra male mice) | food consumption as compared to control ([2]; normal Sabra male mice) | weight and food consumption effect compared among the three treated groups ([2]; normal Sabra male mice, compound alone 21 mg/kg vs NDP-αMSH and combination (FIG. 7A, 7B)) | weight change ([2]; normal mice, 23.2 mg/kg and 31.5 mg/kg, vs vehicle (FIG. 8A)) | change in food consumption ([2]; normal mice, 23.2 mg/kg and 31.5 mg/kg, vs vehicle (FIG. 8B))
K024H107: GRK-derived peptide, SEQ ID NO.: 10 (LLRRHS; bARK1) | 4 | became nornoglycemic after three additional weekly injections | dramatic decrease in blood-glucose to the normal level | rose significantly | hardly changed | weight decrease | decrease in food consumption | strongest effect | – | –
KO24H112: GRK-derived peptide; SEQ ID NO.: 15 in b61, printed SEQ ID NO:5 in b230 (LLRRHSI; bARK1) | – | – | – | – | – | – | – | – | effective in reducing both body weight and consumption | effective in reducing both body weight and consumption
NDP-αMSH [reference compound] | – | – | – | – | – | weight decrease | decrease in food consumption | – | – | –
